Reference: ChEMBL document CHEMBL1201862, “PubChem BioAssay data set” (2004)
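Growth conditions: 96-well plates. Treatment: test compound, 48 hours, 5 concentrations. Analysis: linear interpolation between bracketing concentrations; unreached endpoints set to highest concentration. At the GI50, growth is halved.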 The source made the active and inactive calls. Rule as the data show it: active = GI50 up to about 1.1 µM and inactive = higher.

Key:
Test in all cases: NCI-60 cell line screen, 48 h
[1] = test system: MCF7
[2] = test system: HCC 2998
[3] = test system: UACC-62
[4] = test system: MDA-N
[5] = test system: NCI-H522
[6] = test system: T47D
[7] = test system: HT-29
[8] = test system: Hs-578T
[9] = test system: IGROV-1
[10] = test system: UACC-257
[11] = test system: NCI/ADR-RES
[12] = test system: SNB-19
[13] = test system: U-251
[14] = test system: Malme-3M
[15] = test system: UO-31
[16] = test system: MDA-MB-435
[17] = test system: MDA-MB-231
[18] = test system: CCRF-CEM
[19] = test system: HL-60
[20] = test system: RPMI-8226

Measured: GI50

c1cncc(CSc2ncnc3[nH]cnc23)c1
inactive: [1] > 100 µM | [2] > 100 µM | [3] > 100 µM | [4] > 100 µM | [5] > 100 µM | [6] > 100 µM | [7] > 100 µM | [8] > 100 µM | [9] > 100 µM | [10] > 100 µM | [11] > 100 µM | [12] > 100 µM | [13] > 100 µM | [14] > 100 µM | [15] > 100 µM | [16] > 100 µM | [17] > 100 µM | [18] > 100 µM | [19] > 100 µM

CC(C(=O)ON1C(=O)CCC1=O)c1ccc(C(=O)c2ccccc2)s1 (stereo not drawn)
inactive: [1] > 100 µM | [20] > 100 µM | [2] > 100 µM | [3] > 100 µM | [4] > 100 µM | [5] > 100 µM | [6] > 100 µM | [7] > 100 µM | [8] > 100 µM | [9] > 100 µM | [10] > 100 µM | [11] > 100 µM | [12] > 100 µM | [13] > 100 µM | [14] > 100 µM | [15] > 100 µM | [16] > 100 µM | [17] > 100 µM | [18] > 100 µM

CCOC(=O)C1=C(C#N)S(=O)(=O)c2c(oc(C)c2C)N1
inactive: [1] > 100 µM | [20] > 100 µM | [2] > 100 µM | [3] > 100 µM | [4] > 100 µM | [5] > 100 µM | [6] > 100 µM | [7] > 100 µM | [8] > 100 µM | [9] > 100 µM | [10] > 100 µM | [11] > 100 µM | [12] > 100 µM | [13] > 100 µM | [14] > 100 µM | [15] > 100 µM | [16] > 100 µM | [17] > 100 µM

CC1=NN(c2cccc(Cl)c2)C2(SCC(=O)N2c2nc3ccccc3s2)/C1=C\c1cccs1 (stereo not drawn)
inactive: [1] 27.4 µM | [20] 17.7 µM | [2] 16.6 µM | [4] 21.1 µM | [5] 21.2 µM | [6] 24.9 µM | [7] 21.6 µM | [8] 22.5 µM | [9] 27.3 µM | [10] 24.4 µM | [11] 21.9 µM | [13] 20.3 µM | [15] 22.4 µM | [16] 30.5 µM | [17] 30.2 µM | [19] 27.9 µM

O=c1c2cc([N+](=O)[O-])ccc2oc2nc3n(c(=O)c12)CCCS3
inactive: [1] > 100 µM | [20] > 100 µM | [2] > 100 µM | [3] > 100 µM | [4] > 100 µM | [5] > 100 µM | [6] > 100 µM | [8] 56.1 µM | [9] > 100 µM | [10] > 100 µM | [11] > 100 µM | [12] > 100 µM | [13] > 100 µM | [14] > 100 µM | [15] > 100 µM | [16] > 100 µM | [17] > 100 µM | [18] > 100 µM

COC(=O)CCC(NC(=O)OC(C)(C)C)C(=O)NC(Cc1ccc(NC(=O)CCCC(C)=O)cc1)C(=O)NC(CCC(=O)OC)C(=O)OC (stereo not drawn)
inactive: [1] > 100 µM | [20] > 100 µM | [2] > 100 µM | [3] > 100 µM | [4] > 100 µM | [5] > 100 µM | [6] > 100 µM | [7] > 100 µM | [8] > 100 µM | [9] > 100 µM | [10] > 100 µM | [11] > 100 µM | [12] > 100 µM | [14] > 100 µM | [15] > 100 µM | [16] > 100 µM | [17] > 100 µM | [18] > 100 µM
